Laboratory results published in paper PMC9674596, “Origin of acetylcholine antagonism in ELIC, a bacterial pentameric ligand-gated ion channel” (Communications Biology, 2022).

Tests used:
Type in all cases: cell-based, Erwinia chrysanthemi
ELIC I79Y = molecular target: T1, ELIC I79Y (Dickeya chrysanthemi, UniProt P0C7B7, I79Y/INS163G); experiment: Two-electrode voltage clamp, I79Y mutant ELIC expressed in Xenopus laevis oocytes
T1 construct: expressed in transfected cells; host or cells: Xenopus laevis oocytes injected with cRNA from ELIC-pTLN
Procedure: (§1) Stage V-VI Xenopus laevis oocytes were isolated[72] and deflocculated enzymatically in ND96 buffer without Ca^2+ (96 mM NaCl, 2 mM KCl, 1 mM MgCl2, 2 mM pyruvate, 5 mM HEPES, pH 7.4), but supplemented with 1 mg/mL collagenase B and 1 mg/mL trypsin inhibitor, for 2 h at room temperature under constant stirring. The deflocculation buffer was then gradually removed by washing the oocytes in ND96 buffer (96 mM NaCl, 2 mM KCl, 1 mM MgCl2, 1 mM CaCl2, 2 mM pyruvate, 5 mM HEPES, pH 7.4) for several iterations. The oocytes were then allowed to stir for an additional hour at room temperature under constant stirring with the buffer being periodically replaced until clear. To obtain optimal receptor expression, individually selected and healthy oocytes were injected with 0.2 ng cRNA for wild-type ELIC and 5 ng cRNA for mutants. Subsequently, oocytes were incubated for one day at 16 °C in ND96^+ buffer (96 mM NaCl, 2 mM KCl, 1 mM MgCl2, 1 mM CaCl2, 2 mM pyruvate, and 5 mM HEPES at pH 7.6). After expression, injected oocytes were placed in a RC-1Z oocyte chamber (Harvard Apparatus; Hamden, CT) containing buffer (pH 7.4) composed of 150 mM NaCl, 0.5 mM BaCl2, 10 mM HEPES, and 1 mM dithiothreitol or 1 µM atropine if cysteamine, or ACh, was used in the experiment, respectively. The presence of the reducing agent, dithiothreitol, ensures that the sulfhydryl group of cysteamine remains reduced.
(§2) Once in the oocyte chamber, whole-cell currents were recorded using a two-electrode voltage-clamp apparatus (OC-725C oocyte clamp; Harvard Apparatus), with a buffer flow rate of 5–10 mL min^−1. Currents in response to various additions of cysteamine and/or ACh, were measured with the transmembrane voltage clamped at −60 mV. Dose response curves for each wild-type and mutant ELIC were acquired from at least five oocytes in two different batches.
(§3) For identifying the half maximal effective concentration (EC50) and apparent Hill coefficient (nH) of cysteamine, dose response curves were created by taking the magnitude of each cysteamine-activated peak current (I) and normalizing this value to the maximal peak current in the presence of excess agonist (Imax). The log (base 10) cysteamine concentration in molar was then plotted on the x-axis against the fractional response (I/Imax) on the y-axis. The data was fitted using nonlinear regression with a variable slope sigmoidal dose response (Eq. 1, below) in GraphPad Prism (v.8.0.0).1 y=1/1+10^nH^LogEC50−X
Individual EC50 and Hill coefficients were averaged for each oocyte to derive a mean ± standard deviation. For identifying a half maximal inhibitory concentration (IC50) and Hill coefficient of ACh, a concentration of cysteamine corresponding to its EC50 was used in the presence of increasing concentrations of ACh. Peak currents elicited from cysteamine with ACh (I) were normalized to the initial cysteamine peak current in the absence of ACh (Io). The log (base 10) ACh concentration was then plotted on the x-axis against the fractional response (I/Io) on the y-axis. Subsequent steps were the same as above for deriving a cysteamine EC50 and Hill coefficient. The individual IC50 and Hill coefficients were averaged for each oocyte to derive a mean ± one standard deviation. Lastly, to identify four normalized response values, cysteamine at the 10% maximal effective concentration (EC10), 20% maximal effective concentration (EC20), EC50 and 90% maximal effective concentration (EC90), was applied in the presence and absence of 25 mM ACh. […]

ELIC F133W = ELIC F133W (Dickeya chrysanthemi, UniProt P0C7B7, F133W); experiment: cell-based; details: F133W
Procedure: as §1, §2, §3
Individual EC50 and Hill coefficients were averaged for each oocyte to derive a mean ± standard deviation. For identifying a half maximal inhibitory concentration (IC50) and Hill coefficient of ACh, a concentration of cysteamine corresponding to its EC50 was used in the presence of increasing concentrations of ACh. Peak currents elicited from cysteamine with ACh (I) were normalized to the initial cysteamine peak current in the absence of ACh (Io). The log (base 10) ACh concentration was then plotted on the x-axis against the fractional response (I/Io) on the y-axis. Subsequent steps were the same as above for deriving a cysteamine EC50 and Hill coefficient. The individual IC50 and Hill coefficients were averaged for each oocyte to derive a mean ± one standard deviation. Lastly, to identify four normalized response values, cysteamine at the 10% maximal effective concentration (EC10), 20% maximal effective concentration (EC20), EC50 and 90% maximal effective concentration (EC90), was applied in the presence and absence of 25 mM ACh. The cysteamine-activated peak current with 25 mM ACh, was normalized to the cysteamine-activated peak current without ACh.

ELIC A75D = molecular target: T2, ELIC A75D (Dickeya chrysanthemi, UniProt P0C7B7, A75D/INS163G); experiment: Two-electrode voltage clamp, A75D mutant ELIC expressed in Xenopus laevis oocytes; details: A75D
T2 construct: expressed in transfected cells; host or cells: Xenopus laevis oocytes injected with cRNA from ELIC-pTLN

[1] = ACh 0.5 mM to 50 mM, followed by 5 mM cysteamine
[2] = cysteamine as agonist, read-out: Activation EC50
[3] = read-out: Cysteamine concentration corresponding to EC90

NCCS [cysteamine]
Increase in EC50 for cysteamine relative to wild-type (ELIC I79Y): 24 fold
Peak current on application of ligand alone (ELIC I79Y; [1]): robust peak current
Activation Hill coefficient (ELIC I79Y; estimate, cysteamine application for 30 s, 1.5 mM to 100 mM): 2.2 ± 0.3
EC50 (ELIC I79Y; estimate, cysteamine application for 30 s, 1.5 mM to 100 mM, read-out: Activation EC50): 14 ± 1 mM
Cysteamine concentration corresponding to EC10 (ELIC F133W): 1.6 mM
Cysteamine concentration corresponding to EC20 (ELIC F133W): 2.3 mM
Increase in EC50 for cysteamine relative to wild-type (ELIC F133W): 7 fold
Activation Hill coefficient (ELIC F133W; cysteamine as agonist): 2.3 ± 0.3
EC50 (ELIC F133W; [2]): 4.3 ± 0.6 mM
Peak current on application of ligand alone (ELIC F133W; [1]): robust peak current
EC90 (ELIC F133W; [3]): 11.3 mM
Cysteamine concentration corresponding to EC10 (ELIC A75D): 0.6 mM
Cysteamine concentration corresponding to EC20 (ELIC A75D): 0.9 mM
Increase in EC50 for cysteamine relative to wild-type (ELIC A75D): 3 fold
Activation Hill coefficient (ELIC A75D; cysteamine as agonist): 2.3 ± 0.5
EC50 (ELIC A75D; [2]): 1.6 ± 0.4 mM
Peak current on application of ligand alone (ELIC A75D; [1]): robust peak current
EC90 (ELIC A75D; [3]): 4.2 mM
